{"source": "patent US5945549A", "about": "“Production of aqueous solutions of mixtures of formyltertrahydrofuran and hydrates thereof” (Eastman Chemical Company, priority 1999, dated 1999)", "key": {"[1]": {"type": "physicochemical", "experimental": "Partition coefficients also were determined by the same procedures for using the inert organic solvents 1-decanol (alcohol), isobutyl isobutyrate (ester, IBIB), 2,2,4-trimethyl-1,3-pentanediol monoisobutyrate (alcohol ester, TMPD-MIB), and dimethyl terphthalate (aromatic diester, DMT)."}, "[2]": {"experiment": "Solvent partition coefficient into water, with and without 3-FTHF co-solvent (Examples 45-56)", "type": "physicochemical", "conditions": "no co-solvent; H2O:(S + CS) 1:1", "excerpt": "These examples include materials which could act as solvents for the reaction and extraction."}, "[3]": {"experiment": "Hydration equilibrium 3-FTHF/3-DHMTHF in water by proton nuclear magnetic resonance", "type": "physicochemical", "experimental": "The maximum density shown in Table I corresponds approximately to the composition for 3-DHMTHF. […] Confirmation of the formation of 3-DHMTHF when 3-FTHF is added to water comes from proton Nuclear Magnetic Resonance spectroscopy. At room temperature, 50 weight percent solutions of aqueous 3-FTHF show two components: 79 mole percent 3-DHMTHF and only 21 mole percent 3-FTHF. Furthermore, changing the water concentration either directly or by using water miscible solvents reversibly changes the 3-DHMTHF:3-FTHF mole ratio indicating a rapidly established equilibrium between the two components as well as showing their relative stability. The relative amounts of 3-FTHF and 3-DHMTHF at varying water/3-FTHF concentrations as determined by proton nuclear magnetic resonance spectroscopy are shown in Table II wherein the values given for \"Water\", \"3-FTHF\" and \"Solvent\" are weight percentages based on the total weight of the 3 component composition and \"Solvent\" refers to CD3 COCD3 (NMR solvent).\nIn Table II the value given for the 3-FTHF component is the amount of 3-FTHF dissolved in the composition although in aqueous solution it exists both as 3-FTHF and 3-DHMTHF. Some of the 3-FTHF in the water solution also exists in the form of an acetal, e.g., depending on the concentration, up to about 70 mole percent (at very high concentrations) but usually only about 0.5 mole percent (at 50 weight percent concentration) of the 3-FTHF is in the form of an acetal having the structure: [drawing 4] wherein n is 2."}, "[4]": {"experiment": "Share of diol, hemiacetal or acetal in aqueous solution", "type": "physicochemical"}, "[5]": {"experiment": "3-FTHF solubility in solvent", "type": "physicochemical", "experimental": "Partition coefficients also were determined by the same procedures for using the inert organic solvents 1-decanol (alcohol), isobutyl isobutyrate (ester, IBIB), 2,2,4-trimethyl-1,3-pentanediol monoisobutyrate (alcohol ester, TMPD-MIB), and dimethyl terphthalate (aromatic diester, DMT). The 3-FTHF:Solvent:Water volume ratios used in each of Examples 37-44 was 3:3:4. The partition coefficients are shown in Table VI wherein the values specified for 3-FTHF Solubility in Solvent are weight percentages, the values given for Temp are the temperatures (° C.), K3FTHF is the partition coefficient for 3-FTHF determined as described above and Ksolvent is the coefficient for the solvent utilized in each example determined form its solubility in the two phase and affected by the presence of the 3-FTHF substrate."}, "[6]": {"experiment": "Partition coefficient of triphenylphosphine between toluene and water", "type": "physicochemical", "excerpt": "Rhodium, the other component of the catalyst, exists primarily as rhodium (I) hydrido carbonyl bis (triphenylphosphine) complex and accompanies the triphenylphosphine with a similar partition coefficient."}, "[7]": {"conditions": "3-FTHF:Solvent:Water 3:3:4 by volume, 24.1-25.7 °C"}, "[8]": {"conditions": "50 weight percent aqueous 3-FTHF, room temperature"}, "[9]": {"conditions": "Water 6.1, 3-FTHF 6.3, CD3COCD3 87.6 wt %"}, "[10]": {"conditions": "Water 10.4, 3-FTHF 13.8, CD3COCD3 75.8 wt %"}, "[11]": {"conditions": "Water 15.2, 3-FTHF 20.2, CD3COCD3 64.6 wt %"}, "[12]": {"conditions": "Water 19.8, 3-FTHF 26.2, CD3COCD3 54.0 wt %"}, "[13]": {"conditions": "Water 24.1, 3-FTHF 32.0, CD3COCD3 43.9 wt %"}, "[14]": {"conditions": "Water 31.4, 3-FTHF 43.5, CD3COCD3 25.1 wt %"}, "[15]": {"conditions": "Water 36.9, 3-FTHF 46.6, CD3COCD3 16.5 wt %"}, "[16]": {"conditions": "Water 37.6, 3-FTHF 54.4, CD3COCD3 8.0 wt %"}, "[17]": {"conditions": "Water 45.0, 3-FTHF 55.0, CD3COCD3 0.0 wt %"}}, "note": "Like-named read-outs stand apart in the source and are kept apart here."}
{"molecule": "2,2,4-trimethyl-1,3-pentanediol monoisobutyrate [TMPD-MIB, reference compound]", "values": [{"measurement": "KSolvent partition coefficient", "setting": "[1]", "result": 0.00481}]}
{"molecule": "CCCCCCCCCCO", "note": "[1-Decanol, 1-decanol, reference compound]", "values": [{"measurement": "KSolvent partition coefficient", "setting": "[1]; [7]", "result": 0.01695}, {"measurement": "Solvent Partition Coefficient", "setting": "[2]", "result": 0.00028}]}
{"molecule": "OC(O)C1CCOC1", "note": "(stereo not shown) [3-DHMTHF, 3-Dihydroxymethyltetrahydrofuran]", "values": [{"measurement": "Mole Percent in equilibrium", "setting": "[3]; [8]", "result": 79, "unit": "mole percent"}, {"measurement": "Mole Percent in equilibrium", "setting": "[3]; [9]", "result": 21.6, "unit": "Mole Percent"}, {"measurement": "Mole Percent in equilibrium", "setting": "[3]; [10]", "result": 31.2, "unit": "Mole Percent"}, {"measurement": "Mole Percent in equilibrium", "setting": "[3]; [11]", "result": 41.9, "unit": "Mole Percent"}, {"measurement": "Mole Percent in equilibrium", "setting": "[3]; [12]", "result": 48.9, "unit": "Mole Percent"}, {"measurement": "Mole Percent in equilibrium", "setting": "[3]; [13]", "result": 56.6, "unit": "Mole Percent"}, {"measurement": "Mole Percent in equilibrium", "setting": "[3]; [14]", "result": 66.7, "unit": "Mole Percent"}, {"measurement": "Mole Percent in equilibrium", "setting": "[3]; [15]", "result": 71.2, "unit": "Mole Percent"}, {"measurement": "Mole Percent in equilibrium", "setting": "[3]; [16]", "result": 75.1, "unit": "Mole Percent"}, {"measurement": "Mole Percent in equilibrium", "setting": "[3]; [17]", "result": 79.0, "unit": "Mole Percent"}]}
{"molecule": "O=CC1CCOC1", "note": "(stereo not shown) [3-FTHF, 3-formyltetrahydrofuran]", "values": [{"measurement": "3-FTHF in the form of an acetal (n is 2)", "setting": "[4]; at 50 weight percent concentration", "result": "about 0.5 mole percent"}, {"measurement": "3-FTHF in the form of an acetal (n is 2)", "setting": "[4]; at very high concentrations", "result": "up to 70 mole percent"}, {"measurement": "3-FTHF Solubility in Solvent", "setting": "[5]; in 1-decanol", "result": 100, "unit": "weight percentages"}, {"measurement": "3-FTHF Solubility in Solvent", "setting": "[5]; in DIPB", "result": 100, "unit": "weight percentages"}, {"measurement": "3-FTHF Solubility in Solvent", "setting": "[5]; in DMT", "result": 100, "unit": "weight percentages"}, {"measurement": "3-FTHF Solubility in Solvent", "setting": "[5]; in IBIB", "result": 100, "unit": "weight percentages"}, {"measurement": "3-FTHF Solubility in Solvent", "setting": "[5]; in TMPD-MIB", "result": 100, "unit": "weight percentages"}, {"measurement": "3-FTHF Solubility in Solvent", "setting": "[5]; in isooctane", "result": 2.36, "unit": "weight percentages"}, {"measurement": "3-FTHF Solubility in Solvent", "setting": "[5]; in n-decane", "result": 0.93, "unit": "weight percentages"}, {"measurement": "3-FTHF Solubility in Solvent", "setting": "[5]; in p-xylene", "result": 100, "unit": "weight percentages"}, {"measurement": "3-FTHF Solubility in Solvent", "setting": "[5]; in toluene", "result": 100, "unit": "weight percentages"}, {"measurement": "Mole Percent in equilibrium", "setting": "[3]; [8]", "result": 21, "unit": "mole percent"}, {"measurement": "Mole Percent in equilibrium", "setting": "[3]; [9]", "result": 78.4, "unit": "Mole Percent"}, {"measurement": "Mole Percent in equilibrium", "setting": "[3]; [10]", "result": 68.8, "unit": "Mole Percent"}, {"measurement": "Mole Percent in equilibrium", "setting": "[3]; [11]", "result": 58.1, "unit": "Mole Percent"}, {"measurement": "Mole Percent in equilibrium", "setting": "[3]; [12]", "result": 51.1, "unit": "Mole Percent"}, {"measurement": "Mole Percent in equilibrium", "setting": "[3]; [13]", "result": 43.4, "unit": "Mole Percent"}, {"measurement": "Mole Percent in equilibrium", "setting": "[3]; [14]", "result": 33.3, "unit": "Mole Percent"}, {"measurement": "Mole Percent in equilibrium", "setting": "[3]; [15]", "result": 28.8, "unit": "Mole Percent"}, {"measurement": "Mole Percent in equilibrium", "setting": "[3]; [16]", "result": 24.9, "unit": "Mole Percent"}, {"measurement": "Mole Percent in equilibrium", "setting": "[3]; [17]", "result": 21.0, "unit": "Mole Percent"}]}
{"molecule": "CC(C)c1cccc(C(C)C)c1", "note": "[DIPB, 1,3-diisopropylbenzene, reference compound]", "values": [{"measurement": "KSolvent partition coefficient", "setting": "[1]; [7]", "result": 0.01904}]}
{"molecule": "COC(=O)c1ccccc1C(=O)OC", "note": "[DMP, dimethyl phthalate]", "values": [{"measurement": "Solvent Partition Coefficient", "setting": "[2]", "result": 0.00731}]}
{"molecule": "COC(=O)c1ccc(C(=O)OC)cc1", "note": "[DMT, dimethyl terphthalate, reference compound]", "values": [{"measurement": "KSolvent partition coefficient", "setting": "[1]", "result": 0.02526}]}
{"molecule": "CC(C)COC(=O)C(C)C", "note": "[IBIB, isobutyl isobutyrate, reference compound]", "values": [{"measurement": "KSolvent partition coefficient", "setting": "[1]; [7]", "result": 0.00772}, {"measurement": "Solvent Partition Coefficient", "setting": "[2]", "result": 0.00116}]}
{"molecule": "CC(C)CC(C)(C)C", "note": "[Isooctane, isooctane, reference compound]", "values": [{"measurement": "KSolvent partition coefficient", "setting": "[1]", "result": 0.00746}]}
{"molecule": "CCCCCCCCCC", "note": "[n-Decane, decane, reference compound]", "values": [{"measurement": "KSolvent partition coefficient", "setting": "[1]", "result": 0.00661}]}
{"molecule": "Cc1ccc(C)cc1", "note": "[p-Xylene, p-xylene, reference compound]", "values": [{"measurement": "KSolvent partition coefficient", "setting": "[1]; [7]", "result": 0.0074}, {"measurement": "Solvent Partition Coefficient", "setting": "[2]", "result": 0.00015}]}
{"molecule": "c1ccc(P(c2ccccc2)c2ccccc2)cc1", "note": "[triphenylphosphine]", "values": [{"measurement": "effective partition coefficient of triphenylphosphine", "setting": "[6]; 10 percent emulsion", "result": 0.095}, {"measurement": "partition coefficient of triphenylphosphine between toluene and water", "setting": "[6]; Example 57, 50:1 triphenylphosphine:toluene, 1:1 water:triphenylphosphine+toluene by volume", "result": 0.00433}, {"measurement": "partition coefficient of triphenylphosphine", "setting": "[6]; aqueous/toluene, room temperature, 50 weight percent water in aqueous phase", "result": 0.0043}]}
